Article PMC6727405, “Variation in the metabolites and α-glucosidase inhibitory activity of Cosmos caudatus at different growth stages” (BMC Complementary and Alternative Medicine, 2019)

Target: T1, α-glucosidase type 1 from S. cerevisiae (Sigma G5003)
T1 construct: gene MAL12; commercial enzyme preparation from yeast (Sigma-Aldrich)
Assay: 4-nitrophenyl alpha-D-glucopyranoside hydrolysis, absorbance […] nm
Format: biochemical, Saccharomyces cerevisiae
Conditions: PNPG substrate; phosphate buffer pH 6.5; room temperature; 5 min preincubation; positive control

O=c1c(O)c(-c2ccc(O)c(O)c2)oc2cc(O)cc(O)c12 [Quercetin]
α-glucosidase inhibitory activity, IC50 (μg mL^- 1): 110.50 ± 4.30 µg/mL
